Where two headings read alike, the source gives them in different places. A value given as a limit tells only on which side of the number the result lay.

In series [1] the target is T1, human type X sPLA2 (Homo sapiens, UniProt O15496).
T1 construct: made in house; unpurified culture supernatant
T1 sequence (O15496 43-165): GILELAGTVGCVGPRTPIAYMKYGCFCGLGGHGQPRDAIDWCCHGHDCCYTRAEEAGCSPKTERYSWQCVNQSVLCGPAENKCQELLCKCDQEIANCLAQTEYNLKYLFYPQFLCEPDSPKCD
Briefly: Type X sPLA2-induced PGE2 production in human colon carcinoma HT-29 cells. Particulars: compound 10 μM; TNF-α-treated HT-29 cells; 100 nM human type X sPLA2, 3 h; percentage of PGE2 produced by type X sPLA2 (no treatment group = 100). The series is classed as cell-based. The method, then:
Examination 16: Effects of sPLA2 Inhibitors on Type X sPLA2-Induced PGE2 Production in Human Colon Carcinoma Cell Lines, HT-29 Cells.
HT-29 cells were seeded into 24-well plates at a density of 2.5×10^5 cells/well. After incubation for 24 h, the cells were washed three times with PBS and incubated with 30 ng/mL of recombinant human tumor necrosis factor-α (R&D Systems, Inc.) in DMEM medium supplemented with 10% fetal bovine serum for 18 h at 37° C. After washing with PBS, the cells were preincubated with or without test compounds (at a final concentration of 10 μM; dissolved in DMSO) in Hanks' buffered saline containing 0.1% BSA for 10 min at 37° C., and then stimulated with 100 nM purified human type X sPLA2 enzyme in a final volume of 0.5 mL. After incubation for 3 h at 37° C, the culture supernatant was collected following the centrifugation for the removal of floating cells, and its PGE2 content was quantified with an enzyme-immunoassay kit (Cayman Chemicals Co.). From each data, the value in the absence of type X sPLA2 was subtracted. The amount of PGE2 in the presence of each test compound was expressed as the percentage of the PGE2 content produced by the addition of type X sPLA2 enzyme.

Series [2] has as its target T1, human type X sPLA2. Briefly: Human type X sPLA2-induced oleic acid release in human colon carcinoma HT-29 cells. The format is cell-based. Particulars: compound 10 μM, 100 nM human type X sPLA2, 30 min, percentage of the increase by type X sPLA2 (no treatment group = 100). The method, then:
Examination 15: Effects of sPLA2 Inhibitors on Human Type X sPLA2-Induced Oleic Acid Release in Human Colon Calcinoma Cell Lines, HT-29 Cells.
Human colon calcinoma cell lines, HT-29 cells (obtained from ATCC) were cultured in DMEM supplemented with 10% fetal calf serum. The cells were washed by phosphate-buffered saline (PBS), detached from culture plates by treatment with trypsin/EDTA solution and further washed by PBS. The resulting cells were resuspended in Hanks' buffered saline containing 0.1% bovine serum albumin (BSA) at a density of 12.5×10^6 cells/mL. Aliquots of the cell suspension (0.4 ml) were transferred into polypropylene tubes and test compounds dissolved in DMSO solution (final concentration; 10 μM) were added. After preincubation for 10 min at 37° C., 100 nM purified human type X sPLA2 enzyme (Hanasaki et al J. Biol. Chem. (1999) 274, 34203–34211) was added (final volume of 0.5 mL). After incubation for 30 min at 37° C., the reaction was stopped by the addition of 2 ml Dole's reagent (heptane:2-propanol:1M H2SO4=10:40:1, v/v/v).

The target in series [3] is T1, human type X sPLA2. Description: Type X sPLA2-induced fatty acid release from isolated human lipoproteins (LDL). The format is biochemical. Particulars: read-out: % of Inhibition (10 μM). The procedure:
Examination 17: Effects of sPLA2 Inhibitors on Type X sPLA2-Induced Fatty Acid Release From Isolated Human Lipoproteins.
LDL was isolated from human plasma by sequential ultracentrifugation method (Havel et al. J. Clin. Invest. 34,1345–1353 (1955)). LDL (0.5 mg/mL) was incubated with 10 nmol/L of human type X sPLA2 in the assay mixture containing 12.5 mmol/L Tris-HCl buffer (pH 8.0), 125 mg/L bovine serum albumin and 1 mmol/L calcium chloride for 4 hr at 37° C. Fatty acids released from lipoprotein were extracted by Dole's method (Dole et al. J. Biol. Chem. 235, 2595–2599 (1960)), labeled with 9-anthryldiazomethane according to a known method (Hanasaki et al., J. Biol. Chem. 274, 34203–34211 (1999)) and measured by detecting the fluorescence of labeled fatty acids using reverse-phase high performance chromatography (LiChroCART 125-4 Superspher 100 RP-18 column (Merck). For the inhibition assay of drugs, sPLA2 inhibitors (final concentration of 10 μM) were added at almost the same time as the addition of sPLA2 into the reaction solution. The results are presented in Table 10.

In series [4] the target is T1, human type X sPLA2. Briefly: Inhibition test of human secretory phospholipase A2, chromogenic assay, type X enzyme. The format is biochemical.
The target in series [5] is T2, human type V sPLA2 (Homo sapiens, UniProt P39877).
T2 construct: made in house; unpurified culture supernatant
T2 sequence (P39877 21-138): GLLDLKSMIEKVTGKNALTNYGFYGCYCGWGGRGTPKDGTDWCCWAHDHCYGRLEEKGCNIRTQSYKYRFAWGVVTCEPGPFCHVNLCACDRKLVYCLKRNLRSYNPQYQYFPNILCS
Briefly: Inhibition test of human secretory phospholipase A2, chromogenic assay, type V enzyme. The series is classed as biochemical.

Series [6] deals with human type I enzyme (sPLA2) (Homo sapiens, UniProt P04054). Description: Inhibition test of human secretory phospholipase A2, chromogenic assay, type I enzyme. The series is classed as biochemical.
human type I enzyme (sPLA2), sequence (P04054 23-148): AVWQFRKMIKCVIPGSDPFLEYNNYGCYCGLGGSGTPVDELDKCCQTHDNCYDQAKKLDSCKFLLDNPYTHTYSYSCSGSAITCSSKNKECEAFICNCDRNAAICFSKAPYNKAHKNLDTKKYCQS
Series [7] deals with T3, human type II enzyme (sPLA2) (Homo sapiens, UniProt P14555).
T3 sequence (P14555 21-144): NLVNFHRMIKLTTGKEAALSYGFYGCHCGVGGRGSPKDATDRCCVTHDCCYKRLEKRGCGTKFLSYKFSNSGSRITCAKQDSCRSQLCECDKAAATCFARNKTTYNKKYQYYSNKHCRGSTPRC
Briefly: Inhibition test of human secretory phospholipase A2, chromogenic assay, type II enzyme. The format is biochemical.

[8] abbreviates: compound 10 μM, human LDL 0.5 mg/mL, 10 nmol/L human type X sPLA2, 4 hr at 37° C.
Setting [9] is: human sPLA2 type V (CHO supernatant), chromogenic assay, 45 min, read-out: IC50 type V.
Where [10] appears, read: recombinant human sPLA2 type I, chromogenic assay, 30 min, read-out: IC50 type I.
[11] abbreviates: human sPLA2 type II, chromogenic assay, 30 min, read-out: IC50 type II.

In the case of `Cc1cn2c(CCc3ccccc3)c(CC(C)C)c(C(=O)C(N)=O)c2c(OCC(=O)O)n1` [Compound I-4], the melting point (commonly the temperature, or range, at which the solid turns liquid) is 202 to 203 °C. Moreover, the PGE2 production in series [1] is reported as 35.3 ± 40.2 %. Besides, the Oleic acid release in series [2] is given as 13.8 ± 1.8 %.

As for `CC(C)Cc1c(C(=O)C(N)=O)c2c(OCC(=O)O)cccc2n1Cc1ccccc1` [Compound I-10], the inhibition (usually the relative decrease from the control value, in per cent) at 10 µM in series [3] (setting [8]) was 91.3%. Moreover, the IC50 (usually the concentration needed to halve the response being measured) in series [4] is 13 nM; in series [5] (setting [9]) it was more than 1000 nM; in series [6] (setting [10]), more than 700 nM; in series [7] (setting [11]), more than 1000 nM. Also, in series [1], the PGE2 production is on record as −12.7 ± 7.9 %. Further, the Oleic acid release in series [2] is given as −0.2 ± 5.7 %.

Turning to `CC(C)Cc1c(C(=O)C(N)=O)c2c(OCC(=O)NS(=O)(=O)c3ccccc3)cccc2n1Cc1ccccc1` [Compound I-21], the IC50 in series [4] came out at 8 nM. Further, the PGE2 production in series [1] is on record as −6.6 ± 7.1 %. Besides, the Oleic acid release in series [2] was found to be 11.8 ± 0.6 %.

`CC(C)Cc1c(C(=O)C(N)=O)c2c(OCC(=O)NS(=O)(=O)c3ccccc3)cccc2n1Cc1ccc(F)cc1` [Compound I-22] came in with a melting point of 172 to 173 °C. Also, the inhibition at 10 µM in series [3] came out at 91.7%. This compound returned an IC50 in series [4] of 8 nM. The same compound returned a half-maximal inhibitory concentration (IC50) in series [5] of more than 1000 nM. This compound showed a half-maximal inhibitory concentration (IC50) in series [6] of more than 700 nM. The same compound gave a half-inhibitory concentration (IC50) in series [7] of more than 1000 nM.

On to `CC(C)Cc1c(C(=O)C(N)=O)c2c(OCC(=O)NS(C)(=O)=O)cccc2n1Cc1ccccc1` [Compound I-23], for which the IC50 in series [4] is 6 nM; in series [5] (setting [9]) it was more than 1000 nM; in series [6] (setting [10]), more than 700 nM; in series [7] (setting [11]), more than 1000 nM. Moreover, the PGE2 production in series [1] was 9.0 ± 28.1 %. Moreover, the Oleic acid release in series [2] is listed as −2.0 ± 5.1 %.

Take `CC(C)Cc1c(C(=O)C(N)=O)c2c(OCC(=O)NS(=O)(=O)C(F)(F)F)cccc2n1Cc1ccccc1` [Compound I-30]: the inhibition at 10 µM in series [3] (setting [8]) came to 97.5%.

The record behind these values is US7026318B2 (Shionogi & Co., Ltd., priority 2000, dated 2006).
